In patent US11413290B2, “Amorphous solid dispersions of dasatinib and uses thereof” (NANOCOPOEIA, LLC, priority 2020, dated 2022):

Assays:
[1] = dasatinib in crystalline forms; cited from earlier work
[2] = Amorphicity / crystallinity by XRD; format: physicochemical; conditions: Comparative Example; promptly after spray drying and secondary drying
Description: The percent of crystallinity was calculated as follows: % crystallinity=area of crystalline peaks/(area of crystalline peaks+amorphous peaks)
Amorphicity and glass transition temperature were assessed using the methodology described in Example 1.

[3] = Assay and total impurities by HPLC (Example 6); format: physicochemical; conditions: Comparative Example; promptly after preparation
Description: Assay and total impurities of the ASDs were assessed using either an Agilent 1200 HPLC or a Waters Alliance e2695 HPLC.
L100-55 ASDs and in Table 37 for Dasatinib:METHOCEL E5 ASDs at t=0 and at each stability time point. These reported assay values are corrected for the measured water content of the sample.

[4] = Water content by coulometric Karl Fischer titration; format: physicochemical; conditions: Comparative Example; promptly after preparation
[5] = Glass transition temperature by mDSC; conditions: Comparative Example; promptly after preparation

| Structure (SMILES) | Biopharmaceutical Classification System (BCS) class [1] | XRD character [2] | assay value [3] [%] | Water content [4] [%] | glass transition temperature (Tg), transition event [5] [°C] |
| --- | --- | --- | --- | --- | --- |
| Cc1nc(Nc2ncc(C(=O)Nc3c(C)cccc3Cl)s2)cc(N2CCN(CCO)CC2)n1 [dasatinib, N-(2-chloro-6-methylphenyl)-2-[[6-[4-(2-hydroxyethyl)-1-piperazinyl]-2-methyl-4-pyrimidinyl]amino]-5-thiazolecarboxamide] | Class II |  |  |  |  |
| Cc1nc(Nc2ncc(C(=O)Nc3c(C)cccc3Cl)s2)cc(N2CCN(CCO)CC2)n1 [spray-dried material of 100% dasatinib] |  | exhibited crystalline character | 97.4 | 0.81 | 125.61 |
